SMILES strings stand for the structures.

For orientation: IC50 means the point on the concentration scale where inhibition reaches its midpoint.

The first test has as its target T1, rhGBA (recombinant human GBA, Imiglucerase) (Homo sapiens, UniProt P04062, R534H).
T1 construct: purchased Sanofi Genzyme (Cambridge, MA, USA)
T1 sequence (P04062 40-536 R534H): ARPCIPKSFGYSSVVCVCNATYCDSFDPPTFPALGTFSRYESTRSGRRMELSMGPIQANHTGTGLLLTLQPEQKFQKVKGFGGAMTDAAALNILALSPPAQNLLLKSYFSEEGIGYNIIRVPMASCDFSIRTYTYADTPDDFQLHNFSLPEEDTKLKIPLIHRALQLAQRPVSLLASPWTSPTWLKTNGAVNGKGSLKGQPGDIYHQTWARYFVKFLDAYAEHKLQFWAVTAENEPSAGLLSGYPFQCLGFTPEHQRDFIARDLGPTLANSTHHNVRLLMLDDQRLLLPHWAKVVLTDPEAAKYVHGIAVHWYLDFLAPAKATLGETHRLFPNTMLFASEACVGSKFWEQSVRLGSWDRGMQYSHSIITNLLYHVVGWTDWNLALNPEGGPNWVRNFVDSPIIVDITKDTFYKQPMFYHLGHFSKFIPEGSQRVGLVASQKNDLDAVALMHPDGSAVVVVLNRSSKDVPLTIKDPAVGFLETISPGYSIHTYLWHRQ
Description: Fluorogenic substrate (4-MU-β-D-glucoside) enzymatic assay, rhGBA. The test is classed as biochemical. The note with it: in vitro, 30 min. Here is the method:
Using fluorogenic substrate‐based assays, we determined apparent IC50 values at 30 min incubation time of the xylo‐cyclophellitols in rhGBA, and GBA2 and GBA3 lysates of cells expressing only each of the enzymes specifically.
Enzyme activity assays: All assays were performed with lysates of HEK293T cells or zebrafish larvae in 96‐well plates at 37 °C. Samples were diluted with McIlvaine buffer (150 mM citric acid‐Na2HPO4) to a final volume of 25 μL, at pH appropriate for each enzyme. Assays were performed by incubating the samples with 100 μL 4‐methylumbelliferyl‐β‐D‐glucoside substrates diluted in McIlvaine buffer (with 0.1 % (w/v) bovine serum albumin (BSA)) for a period of 30 min or 3 h. The substrate mixtures used for each enzyme were as follows: GBA, 3.75 mM 4‐MU‐β‐D‐glucopyranoside (Glycosynth, Warrington Cheshire, UK) at pH 5.2, supplemented with 0.2 % (w/v) sodium taurocholate, 0.1 % (v/v) Triton X‐100, 0.1 % (w/v) bovine serum albumin (BSA); GBA2, 3.75 mM 4 MU‐β‐D‐glucopyranoside at pH 5.8; GBA3, 3.75 mM 4‐MU‐β‐D‐glucopyranoside at pH 6.0. After stopping the enzyme reaction with 200 μL 1 M NaOH‐glycine (pH 10.3), 4‐methylumbelliferone fluorescence was measured with a fluorimeter LS55 (Perkin Elmer, Waltham, MA, USA) with λEX 366 nm and λEM 445 nm. Enzyme activities were determined by subtraction of background (measured for incubations without enzyme). IC50 values were determined exactly as earlier described.[36]
The IC50 values were determined using a fluorogenic enzymatic assay. For GBA, 3.16 ng (53 fmol) of rhGBA, (recombinant human GBA, Imiglucerase) obtained from Sanofi Genzyme (Cambridge, MA, USA), was prepared in 12.5 μL McIlvaine buffer (150 mM, pH 5.2) supplemented with 0.1 % (v/v) Triton X‐100, and 0.2 % (w/v) sodium taurocholate, 0.1 % (w/v) bovine serum albumin (BSA). The enzyme was incubated with 12.5 μL of inhibitors diluted in McIlvaine buffer (150 mM, pH 5.2) at 37 °C for 30 min. In the case of GBA2 or GBA3, lysates of GBA/GBA2 KO HEK293T cells overexpressing GBA2 or GBA3, respectively where used. The enzymatic activity of GBA, GBA2 and GBA3 were measured with 4MU‐β‐D‐glucoside substrate as described above.
For the compound `[N-]=[N+]=NCCCCCCCCN1[C@H]2[C@H](O)[C@@H](O)[C@H](O)C[C@H]21` (some centres unmarked) [compound 5], the “potency against GBA compared to unsubstituted xylo-cyclophellitol aziridine 2” value turned out to be 600 fold.

Still in this test, the particulars now being: incubation time 30 min; enzymatic assay; ±SD, n=3; read-out: In vitro apparent IC50 rhGBA.
Consider `OC[C@@H]1[C@@H](O)[C@H](O)[C@@H](O)[C@@H]2N[C@H]12` [compound 4, cyclophellitol aziridine, reference compound], for which the IC50 was 341 ± 5.82 nM. `CN1/C(=C/C=C/C=C/C2=[N+](CCCCCC(=O)NCc3cn(C[C@@H]4[C@@H](O)[C@H](O)[C@@H](O)[C@@H]5O[C@H]45)nn3)c3ccccc3C2(C)C)C(C)(C)c2ccccc21` [ABP 9, reference compound]: the IC50 came to 45.2 ± 4.54 nM. The same measure, in the same setting: to `O[C@@H]1[C@@H](O)[C@H](O)C[C@H]2N[C@@H]12` [compound 2, β‐D‐xylo‐Cyclophellitol aziridine] belongs 719 ± 196 nM. As for `[N-]=[N+]=NCCCCCCCCN1[C@H]2[C@H](O)[C@@H](O)[C@H](O)C[C@H]21` (some centres unmarked) [compound 5], the IC50 was 1.2 ± 0.06 nM. Still for that read-out and setting: to `CN1/C(=C/C=C/C=C/C2=[N+](CCCCCC(=O)NCc3cn(CCCCCCCCN4[C@H]5[C@H](O)[C@@H](O)[C@H](O)C[C@H]54)nn3)c3ccccc3C2(C)C)C(C)(C)c2ccccc21` (some centres unmarked) [ABP 6] belongs 6.44 ± 0.49 nM; to `O[C@@H]1[C@@H](O)[C@H](O)C[C@H]2O[C@@H]12` [compound 1, xylo‐cyclophellitol], 2670 ± 94.5 nM.

As for `OC[C@@H]1[C@@H](O)[C@H](O)[C@@H](O)[C@@H]2O[C@H]12` [compound 3, cyclophellitol], the IC50 came to 400 ± 12.4 nM.

The values are drawn from PMC8596838, “Xylose‐Configured Cyclophellitols as Selective Inhibitors for Glucocerebrosidase” (Chembiochem, 2021).
